Reference: BindingDB's records for doi:10.1016/S0960-894X(01)80247-X (1994)

Experiments:
Endothelin-1 receptor = biological target: T1, Endothelin-1 receptor (Rattus norvegicus, UniProt P26684); assay: Concentration required to produce 50% inhibition of binding against ET A receptor obtained from rat thoracic aortic membrane
T1 sequence (P26684 whole entry): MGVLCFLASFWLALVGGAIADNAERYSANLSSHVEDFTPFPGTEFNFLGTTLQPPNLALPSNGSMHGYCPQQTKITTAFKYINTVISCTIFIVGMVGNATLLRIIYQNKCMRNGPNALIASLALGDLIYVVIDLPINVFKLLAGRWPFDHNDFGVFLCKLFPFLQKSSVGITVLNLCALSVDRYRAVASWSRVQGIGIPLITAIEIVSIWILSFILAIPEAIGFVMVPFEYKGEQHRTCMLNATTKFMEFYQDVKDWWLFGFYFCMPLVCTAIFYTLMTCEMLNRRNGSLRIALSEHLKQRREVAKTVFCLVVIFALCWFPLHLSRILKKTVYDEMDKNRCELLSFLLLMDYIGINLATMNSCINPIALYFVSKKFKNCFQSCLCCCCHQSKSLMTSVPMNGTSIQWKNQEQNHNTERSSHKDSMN

[1] = biological target: T2, Endothelin receptor type B (Rattus norvegicus, UniProt P21451); assay: Concentration required to produce 50% inhibition of binding against ET B receptor obtained from rat brain membrane
T2 sequence (P21451 whole entry): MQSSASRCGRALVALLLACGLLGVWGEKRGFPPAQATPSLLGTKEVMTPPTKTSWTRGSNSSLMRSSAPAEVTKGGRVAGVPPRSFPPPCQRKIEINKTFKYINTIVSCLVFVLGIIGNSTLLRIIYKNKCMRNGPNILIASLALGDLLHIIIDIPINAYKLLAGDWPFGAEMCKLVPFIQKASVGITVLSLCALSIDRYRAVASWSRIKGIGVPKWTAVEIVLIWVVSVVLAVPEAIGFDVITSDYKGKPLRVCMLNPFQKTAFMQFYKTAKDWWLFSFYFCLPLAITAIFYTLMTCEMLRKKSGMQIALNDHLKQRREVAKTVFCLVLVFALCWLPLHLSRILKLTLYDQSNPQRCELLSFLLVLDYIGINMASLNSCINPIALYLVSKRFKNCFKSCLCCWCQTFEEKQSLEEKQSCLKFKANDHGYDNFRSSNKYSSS

Row | pIC50 (Endothelin-1 receptor) | pIC50 [1] | Structure (SMILES)
1 | 7.6 | 10 | CCC[C@@H](NC(=O)[C@@H](NC(=O)[C@H](CC(=O)O)NC(=O)[C@H](CC(C)C)NC(=O)[C@H](Cc1cnc[nH]1)NC(=O)[C@H](CS)NC(=O)[C@H](Cc1ccccc1)NC(=O)[C@H](Cc1ccc(O)cc1)NC(=O)[C@@H](NC(=O)[C@H](CS)NC(=O)[C@H](CCC(=O)O)NC(=O)[C@H](CCCCN)NC(=O)[C@H](CC(=O)O)NC(=O)[C@H](CCSC)NC(=O)[C@H](CC(C)C)NC(=O)[C@H](CO)NC(=O)[C@H](CO)NC(=O)[C@H](CS)NC(=O)[C@H](CO)NC(=O)[C@@H](N)CS)C(C)C)[C@H](C)CC)C(=O)N[C@@H](Cc1c[nH]c2ccccc12)C(=O)O [Endothelin-1 analogue]
2 | 6.07 | 8.6 | CC[C@@H](C)[C@H](NC(=O)[C@H](CC(=O)O)NC(=O)[C@H](CC(C)C)NC(=O)[C@H](Cc1cnc[nH]1)NC(=O)[C@H](CS)NC(=O)[C@H](Cc1ccccc1)NC(=O)[C@H](Cc1ccc(O)cc1)NC(=O)[C@@H](NC(=O)[C@H](CS)NC(=O)[C@H](CCC(=O)O)NC(=O)[C@H](CCCCN)NC(=O)[C@H](CC(=O)O)NC(=O)[C@H](CCSC)NC(=O)[C@H](CC(C)C)NC(=O)[C@H](CO)NC(=O)[C@H](CO)NC(=O)[C@H](CS)NC(=O)[C@H](CO)NC(=O)[C@@H](N)CS)C(C)C)C(=O)N[C@H](Cc1ccccc1)C(=O)N[C@@H](Cc1c[nH]c2ccccc12)C(=O)O [Endothelin-1 analogue]
3 | 7.53 | 9.4 | CC[C@H](C)[C@H](NC(=O)[C@H](CC(=O)O)NC(=O)[C@H](CC(C)C)NC(=O)[C@H](Cc1cnc[nH]1)NC(=O)[C@H](CS)NC(=O)[C@H](Cc1ccccc1)NC(=O)[C@H](Cc1ccc(O)cc1)NC(=O)[C@@H](NC(=O)[C@H](CS)NC(=O)[C@H](CCC(=O)O)NC(=O)[C@H](CCCCN)NC(=O)[C@H](CC(=O)O)NC(=O)[C@H](CCSC)NC(=O)[C@H](CC(C)C)NC(=O)[C@H](CO)NC(=O)[C@H](CO)NC(=O)[C@H](CS)NC(=O)[C@H](CO)NC(=O)[C@@H](N)CS)C(C)C)C(=O)N[C@@H](C)C(=O)N[C@@H](Cc1c[nH]c2ccccc12)C(=O)O [Endothelin-1 analogue]
4 | 9.88 | 10 | CC[C@H](C)[C@H](NC(=O)[C@H](CC(=O)O)NC(=O)[C@H](CC(C)C)NC(=O)[C@H](Cc1cnc[nH]1)NC(=O)[C@H](CS)NC(=O)[C@H](Cc1ccccc1)NC(=O)[C@H](Cc1ccc(O)cc1)NC(=O)[C@@H](NC(=O)[C@H](CS)NC(=O)[C@H](CCC(=O)O)NC(=O)[C@H](CCCCN)NC(=O)[C@H](CC(=O)O)NC(=O)[C@H](CCSC)NC(=O)[C@H](CC(C)C)NC(=O)[C@H](CO)NC(=O)[C@H](CO)NC(=O)[C@H](CS)NC(=O)[C@H](CO)NC(=O)[C@@H](N)CS)C(C)C)C(=O)N[C@H](C(=O)N[C@@H](Cc1c[nH]c2ccccc12)C(=O)O)C1CCCCC1 [Endothelin-1 analogue]
